Article PMC10893492, “Anticancer Evaluation of Novel Benzofuran–Indole Hybrids as Epidermal Growth Factor Receptor Inhibitors against Non-Small-Cell Lung Cancer Cells” (Pharmaceuticals, 2024)

Target: epidermal growth factor receptor (EGFR) (Homo sapiens, UniProt P00533)
Assay: EGFR kinase assay kit (BPS Bioscience) with Kinase-Glo Max luminescence
Format: biochemical

Sequence of epidermal growth factor receptor (EGFR) (P00533 25-1210): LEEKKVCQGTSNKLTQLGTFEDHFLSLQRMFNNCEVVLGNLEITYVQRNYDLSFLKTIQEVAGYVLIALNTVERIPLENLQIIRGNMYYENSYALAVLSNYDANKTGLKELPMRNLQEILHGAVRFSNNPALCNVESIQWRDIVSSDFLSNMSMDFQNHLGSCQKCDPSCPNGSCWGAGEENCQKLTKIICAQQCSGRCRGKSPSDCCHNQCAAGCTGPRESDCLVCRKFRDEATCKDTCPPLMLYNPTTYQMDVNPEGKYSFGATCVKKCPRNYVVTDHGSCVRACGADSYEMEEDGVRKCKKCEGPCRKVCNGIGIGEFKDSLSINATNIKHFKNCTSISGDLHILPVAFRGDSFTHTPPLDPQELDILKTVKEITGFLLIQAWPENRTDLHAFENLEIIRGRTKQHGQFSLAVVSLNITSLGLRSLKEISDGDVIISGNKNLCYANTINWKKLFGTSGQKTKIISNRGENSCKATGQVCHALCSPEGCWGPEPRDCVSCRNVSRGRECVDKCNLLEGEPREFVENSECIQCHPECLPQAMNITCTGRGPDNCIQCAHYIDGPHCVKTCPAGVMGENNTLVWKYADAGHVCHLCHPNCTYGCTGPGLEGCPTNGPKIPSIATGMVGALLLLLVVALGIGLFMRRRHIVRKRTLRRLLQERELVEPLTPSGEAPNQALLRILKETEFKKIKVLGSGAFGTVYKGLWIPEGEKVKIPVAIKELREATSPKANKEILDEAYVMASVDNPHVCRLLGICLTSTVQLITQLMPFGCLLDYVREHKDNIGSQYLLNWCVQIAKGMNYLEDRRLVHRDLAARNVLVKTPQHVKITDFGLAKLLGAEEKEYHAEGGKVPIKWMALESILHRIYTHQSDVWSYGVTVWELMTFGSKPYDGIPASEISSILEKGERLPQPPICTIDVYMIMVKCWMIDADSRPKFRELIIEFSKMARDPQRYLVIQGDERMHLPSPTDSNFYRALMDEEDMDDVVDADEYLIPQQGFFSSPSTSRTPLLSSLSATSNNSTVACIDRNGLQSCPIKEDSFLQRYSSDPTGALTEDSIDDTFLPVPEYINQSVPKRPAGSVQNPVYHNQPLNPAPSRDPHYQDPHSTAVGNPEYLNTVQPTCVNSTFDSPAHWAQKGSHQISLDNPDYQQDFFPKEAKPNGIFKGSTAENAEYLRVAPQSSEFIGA

- IC50: 440 ± 20 nM
SMILES: COc1cc2oc(-c3ccccc3)c(-c3c[nH]c4ccc(Br)cc34)c2cc1OC [8aa, 5-Bromo-3-(5,6-dimethoxy-2-phenylbenzofuran-3-yl)-1H-indole]
